Results taken from PubChem BioAssay AID1963872 (Molecular Pharmacology Branch, DTP, NCI, 2024).

Tested on: KRAS patient-derived spheroids with HUVEC/MSC, viability
Assay: Anticancer human tumor 519858-162-T-J1-PDC patient-derived colon adenocarcinoma cell line growth inhibition [KRAS2]
Conditions: for IC50: curve of first compound; for viability, T/C: stronger effect = lower value
Method in brief: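 KRAS-mutant tumor cells were grown as spheroids with HUVEC endothelial cells and human MSCs as stroma. Targeted agents were tested alone and with KRAS pathway inhibitors. Doses started at or near clinical Cmax, or 10 microM, descending half-log.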

[1] = second compound 0.1 µM, first compound 0.0316 µM
[2] = second compound 0.316 µM, first compound 0.0316 µM
[3] = second compound 1 µM, first compound 0.0316 µM
[4] = second compound 3.16 µM, first compound 0.0316 µM
[5] = second compound 10 µM, first compound 0.0316 µM
[6] = second compound 0.1 µM, first compound 0.1 µM
[7] = second compound 0.1 µM, first compound 0.316 µM
[8] = second compound 0.1 µM, first compound 1 µM
[9] = second compound 0.1 µM, first compound 3.16 µM
[10] = second compound 0.1 µM, first compound 10 µM
[11] = second compound 0.316 µM, first compound 0.1 µM
[12] = second compound 0.316 µM, first compound 0.316 µM
[13] = second compound 0.316 µM, first compound 1 µM
[14] = second compound 0.316 µM, first compound 3.16 µM
[15] = second compound 0.316 µM, first compound 10 µM
[16] = second compound 1 µM, first compound 0.1 µM
[17] = second compound 1 µM, first compound 0.316 µM
[18] = second compound 1 µM, first compound 1 µM
[19] = second compound 1 µM, first compound 3.16 µM
[20] = second compound 1 µM, first compound 10 µM
[21] = second compound 3.16 µM, first compound 0.1 µM
[22] = second compound 3.16 µM, first compound 0.316 µM
[23] = second compound 3.16 µM, first compound 1 µM
[24] = second compound 3.16 µM, first compound 3.16 µM
[25] = second compound 3.16 µM, first compound 10 µM
[26] = second compound 10 µM, first compound 0.1 µM
[27] = second compound 10 µM, first compound 0.316 µM
[28] = second compound 10 µM, first compound 1 µM
[29] = second compound 10 µM, first compound 3.16 µM
[30] = second compound 10 µM, first compound 10 µM
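Further: compound exposure lasted seven days before readout.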
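Wherever viability, T/C is given: 100% = DMSO vehicle control viability.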

`CC(=O)Nc1cccc(-n2c(=O)n(C3CC3)c(=O)c3c(Nc4ccc(I)cc4F)n(C)c(=O)c(C)c32)c1` + CNCc1ccccc1-c1csc(C(C)Nc2nc(C)nc3cc(OC)c(OC)cc23)c1 was tested, and the IC50 (second compound 0.1 µM) was 5.36 nM, the IC50 (second compound 0.316 µM) was 1.38 nM and the IC50 (second compound 1 µM) was 0.356 nM. It also gave an IC50 (second compound 3.16 µM) of less than 0.1 nM, an IC50 (second compound 10 µM) of less than 0.1 nM and a viability, T/C (second compound 0.1 µM, first compound 0.0001 µM) of 70.2%. The viability, T/C (second compound 0.1 µM, first compound 0.000316 µM) was 73.4%, the viability, T/C (second compound 0.1 µM, first compound 0.001 µM) was 60.1% and the viability, T/C (second compound 0.1 µM, first compound 0.00316 µM) was 67.2%. It also gave a viability, T/C (second compound 0.1 µM, first compound 0.01 µM) of 29.7%, a viability, T/C [1] of 13.9% and a viability, T/C (second compound 0.316 µM, first compound 0.0001 µM) of 50.7%. The viability, T/C (second compound 0.316 µM, first compound 0.000316 µM) was 79.1%, the viability, T/C (second compound 0.316 µM, first compound 0.001 µM) was 47.9% and the viability, T/C (second compound 0.316 µM, first compound 0.00316 µM) was 36.4%. The viability, T/C (second compound 0.316 µM, first compound 0.01 µM) was 30.9%, the viability, T/C [2] was 12.2% and the viability, T/C (second compound 1 µM, first compound 0.0001 µM) was 63.3%. For the same molecule, the viability, T/C (second compound 1 µM, first compound 0.000316 µM) was 50.7%, the viability, T/C (second compound 1 µM, first compound 0.001 µM) was 37.9% and the viability, T/C (second compound 1 µM, first compound 0.00316 µM) was 30.6%. The viability, T/C (second compound 1 µM, first compound 0.01 µM) was 16.5%, the viability, T/C [3] was 6.33% and the viability, T/C (second compound 3.16 µM, first compound 0.0001 µM) was 41%. It also gave a viability, T/C (second compound 3.16 µM, first compound 0.000316 µM) of 30.4%, a viability, T/C (second compound 3.16 µM, first compound 0.001 µM) of 17.7% and a viability, T/C (second compound 3.16 µM, first compound 0.00316 µM) of 3.54%. The viability, T/C (second compound 3.16 µM, first compound 0.01 µM) was 1.47%, the viability, T/C [4] was 1.15% and the viability, T/C (second compound 10 µM, first compound 0.0001 µM) was 0.28%. The viability, T/C (second compound 10 µM, first compound 0.000316 µM) was 0.38%, the viability, T/C (second compound 10 µM, first compound 0.001 µM) was 0.25% and the viability, T/C (second compound 10 µM, first compound 0.00316 µM) was 0.25%. It also gave a viability, T/C (second compound 10 µM, first compound 0.01 µM) of 0.22% and a viability, T/C [5] of 0.31%.
`COC(=O)c1ccc2c(C(=Nc3ccc(N(C)C(=O)CN4CCN(C)CC4)cc3)c3ccccc3)c(O)[nH]c2c1` + CNCc1ccccc1-c1csc(C(C)Nc2nc(C)nc3cc(OC)c(OC)cc23)c1 showed an IC50 (second compound 0.1 µM) greater than 10000 nM, an IC50 (second compound 0.316 µM) greater than 10000 nM and an IC50 (second compound 1 µM) greater than 10000 nM. It also gave an IC50 (second compound 3.16 µM) of 2340 nM, an IC50 (second compound 10 µM) of less than 31.6 nM and a viability, T/C [1] of 96.8%. It also gave a viability, T/C [6] of 83.2%, a viability, T/C [7] of 77.4% and a viability, T/C [8] of 100%. For the same molecule, the viability, T/C [9] was 92.4%, the viability, T/C [10] was 73.3% and the viability, T/C [2] was 58.2%. For the same molecule, the viability, T/C [11] was 91.8%, the viability, T/C [12] was 57% and the viability, T/C [13] was 89.9%. The viability, T/C [14] was 90.5%, the viability, T/C [15] was 92% and the viability, T/C [3] was 66.9%. The viability, T/C [16] was 110%, the viability, T/C [17] was 103% and the viability, T/C [18] was 57.1%. For the same molecule, the viability, T/C [19] was 64.7%, the viability, T/C [20] was 70.4% and the viability, T/C [4] was 59.4%. For the same molecule, the viability, T/C [21] was 128%, the viability, T/C [22] was 73.3% and the viability, T/C [23] was 74.8%. The viability, T/C [24] was 40%, the viability, T/C [25] was 37.6% and the viability, T/C [5] was 0.86%. It also gave a viability, T/C [26] of 0.39%, a viability, T/C [27] of 0.42% and a viability, T/C [28] of 0.31%. It also gave a viability, T/C [29] of 0.28% and a viability, T/C [30] of 1.62%.
Molecule `COc1cc(Nc2ncc3c(n2)-c2ccc(Cl)cc2C(c2c(F)cccc2OC)=NC3)ccc1C(=O)O` + CNCc1ccccc1-c1csc(C(C)Nc2nc(C)nc3cc(OC)c(OC)cc23)c1 has an IC50 (second compound 0.1 µM) greater than 10000 nM, an IC50 (second compound 0.316 µM) greater than 10000 nM and an IC50 (second compound 1 µM) greater than 10000 nM. The IC50 (second compound 3.16 µM) was greater than 10000 nM, the IC50 (second compound 10 µM) was less than 31.6 nM and the viability, T/C [1] was 95.9%. It also gave a viability, T/C [6] of 93.5%, a viability, T/C [7] of 79.1% and a viability, T/C [8] of 85%. The viability, T/C [9] was 88.4%, the viability, T/C [10] was 103% and the viability, T/C [2] was 96.5%. For the same molecule, the viability, T/C [11] was 91.5%, the viability, T/C [12] was 56.2% and the viability, T/C [13] was 78.6%. The viability, T/C [14] was 87.6%, the viability, T/C [15] was 71.2% and the viability, T/C [3] was 77.2%. For the same molecule, the viability, T/C [16] was 78.2%, the viability, T/C [17] was 73% and the viability, T/C [18] was 70%. For the same molecule, the viability, T/C [19] was 71.2%, the viability, T/C [20] was 62.1% and the viability, T/C [4] was 58.2%. For the same molecule, the viability, T/C [21] was 54.6%, the viability, T/C [22] was 60.9% and the viability, T/C [23] was 65.6%. For the same molecule, the viability, T/C [24] was 74.2%, the viability, T/C [25] was 67.4% and the viability, T/C [5] was 0.42%. It also gave a viability, T/C [26] of 0.37%, a viability, T/C [27] of 0.36% and a viability, T/C [28] of 0.31%. For the same molecule, the viability, T/C [29] was 0.37% and the viability, T/C [30] was 0.84%.
